Patent US8557840B2, “Herbicidal compounds” (Syngenta Limited, priority 2008, dated 2013)

Key:
Format in all cases: in vivo
Setaria faberi = assay: Herbicidal action, post-emergence, pots in glasshouse (Example B2); settings: 1000 g/ha, evaluated after 13 days, 10=total damage to plant, 0=no damage to plant
Description: (§1) Seeds of a variety of test species were sown in standard soil in pots. After 8 days cultivation (post-emergence) under controlled conditions in a glasshouse (at 24/16° C., day/night; 14 hours light; 65% humidity), the plants were sprayed with an aqueous spray solution derived from the formulation of the technical active ingredient in acetone/water (50:50) solution containing 0.5% Tween 20 (polyoxyethelyene sorbitan monolaurate, CAS RN 9005-64-5). The test plants were then grown in a glasshouse under controlled conditions in a glasshouse (at 24/16° C., day/night; 14 hours light; 65% humidity) and watered twice daily. After 13 days, the test was evaluated (10=total damage to plant; 0=no damage to plant).

Echinochloa crus-galli = assay: as above; settings: 1000 g/ha, evaluated after 13 days, 10=total damage to plant, 0=no damage to plant
Description: as §1

Amaranthus retroflexus = assay: as above; settings: 1000 g/ha, evaluated after 13 days, 10=total damage to plant, 0=no damage to plant
Description: as §1

Ipomea hederaceae = assay: as above; settings: 1000 g/ha, evaluated after 13 days, 10=total damage to plant, 0=no damage to plant
Description: as §1

Solanum nigrum = assay: as above; settings: 1000 g/ha, evaluated after 13 days, 10=total damage to plant, 0=no damage to plant
Description: as §1

test plants = assay: Herbicidal action, post-emergence (Example B1), all test plants, result in words; settings: same protocol as Example B1, post-emergence
Description: Seeds of a variety of test species were sown in sterilised standard soil in seed trays each having 96 cells. […] The plants were grown in the climatic chamber after application at (24/19° C., day/night; 13 hours light; 50-60% humidity) and watered twice daily. After 9 days until the test was evaluated (10=total damage to plant, 0=no damage to plant)

SMILES	SETFA damage to plant (Setaria faberi)	ECHCG damage to plant (Echinochloa crus-galli)	AMARE damage to plant (Amaranthus retroflexus)	IPOHE damage to plant (Ipomea hederaceae)	SOLNI damage to plant (Solanum nigrum)	damage to the test plants (test plants)
CC(C)C(=O)Oc1c(-c2c(F)ccc(F)c2Cl)c(=O)n(C)c2cnccc12 [C2]	0	0	3	5	2	–
O=c1[nH]c2cccnc2c(O)c1-c1c(F)cc(F)cc1F [A9]	–	–	–	–	–	little or no damage
CCn1c(=O)c(-c2c(F)ccc(F)c2Cl)c(OC(=O)C(C)C)c2cncnc21 [E2]	0	2	5	2	4	–
O=c1[nH]c2nnccc2c(O)c1-c1c(F)cccc1Cl [E8]	–	–	–	–	–	little or no damage
O=c1c(-c2c(F)ccc(F)c2Cl)c(O)c2ccc(Cl)nc2n1CC(F)F [D17]	0	0	6	5	6	–
Cn1c(=O)c(-c2c(F)ccc(F)c2Cl)c(O)c2ccc(C(F)(F)F)nc21 [D29]	0	0	6	7	4	–
O=c1c(-c2c(F)ccc(F)c2Cl)c(O)c2cccnc2n1CC(F)F [D21, 3-(2-chloro-3,6-difluoro-phenyl)-1-(2,2-difluoro-ethyl)-4-hydroxy-1H-[1,8]naphthyridin-2-one]	1	2	10	9	10	–
Cn1c(=O)c(-c2c(F)ccc(F)c2Cl)c(OC(=O)C(C)(C)C)c2ccc(C(F)(F)F)nc21 [D30]	0	0	0	2	2	–
Cn1c(=O)c(-c2c(F)ccc(F)c2Cl)c(O)c2ccncc21 [C1]	0	0	0	2	0	–
Cn1c(=O)c(-c2c(F)ccc(F)c2Cl)c(O)c2ccc(Cl)nc21 [D22]	0	1	2	6	4	–
Cn1c(=O)c(-c2c(F)ccc(F)c2Cl)c(OC(=O)C(C)(C)C)c2ccc(Cl)nc21 [D16]	0	0	2	2	2	–
CC(C)(C)C(=O)Oc1c(-c2c(F)ccc(F)c2Cl)c(=O)[nH]c2nc(C(F)(F)F)ccc12 [D31]	0	0	0	1	0	–
COc1cccc(-c2c(O)c3cccnc3[nH]c2=O)c1 [D25]	–	–	–	–	–	little or no damage
Cc1cc2c(c(Cl)n1)c(O)c(-c1c(F)ccc(F)c1Cl)c(=O)n2C [B4]	0	0	0	2	2	–
CC(C)(C)C(=O)Oc1c(-c2c(F)ccc(F)c2Cl)c(=O)[nH]c2nc(Cl)ccc12 [D15]	–	–	–	–	–	little or no damage
O=c1[nH]c2ccncc2c(O)c1-c1c(F)ccc(F)c1Cl [B2]	–	–	–	–	–	little or no damage
O=c1[nH]c2nncnc2c(O)c1-c1c(F)cc(F)cc1F [E11]	–	–	–	–	–	little or no damage
O=c1[nH]c2cnccc2c(O)c1-c1c(F)cc(F)cc1F [C3]	–	–	–	–	–	little or no damage

SMILES	SETFA damage to plant (Setaria faberi)	ECHCG damage to plant (Echinochloa crus-galli)	AMARE damage to plant (Amaranthus retroflexus)	IPOHE damage to plant (Ipomea hederaceae)	SOLNI damage to plant (Solanum nigrum)	damage to the test plants (test plants)
Cc1cc(Cl)c2c(O)c(-c3c(F)ccc(F)c3Cl)c(=O)n(C)c2n1 [D18]	2	0	2	0	3	–
O=c1[nH]c2ncncc2c(O)c1-c1c(F)cc(F)cc1F [E10]	–	–	–	–	–	little or no damage
CC(=O)Oc1c(-c2c(F)ccc(F)c2Cl)c(=O)[nH]c2nncnc12 [E5]	–	–	–	–	–	little or no damage
Cc1cc(C)c(-c2c(O)c3cccnc3n(C)c2=O)c(C)c1 [D24]	0	0	0	1	1	–
CC(C)C(=O)Oc1c(-c2c(F)ccc(F)c2Cl)c(=O)n(CC(F)F)c2ncncc12 [E3]	0	0	7	1	5	–
O=c1c(-c2c(F)ccc(Br)c2Cl)c(O)c2cccnc2n1CC(F)F [D32]	1	1	4	6	7	–
O=c1[nH]c2cnncc2c(O)c1-c1c(F)cc(F)cc1F [E13]	–	–	–	–	–	little or no damage
O=c1[nH]c2ncccc2c(O)c1-c1ccccc1OC(F)(F)F [D3]	–	–	–	–	–	little or no damage
CCn1c(=O)c(-c2c(F)ccc(Cl)c2Cl)c(O)c2c(OC)ccnc21 [D26]	4	4	6	6	6	–
O=c1[nH]c2ncc(Br)cc2c(O)c1-c1c(F)cccc1F [D27]	–	–	–	–	–	little or no damage
CC(C)(C)C(=O)Oc1c(-c2c(F)ccc(F)c2Cl)c(=O)[nH]c2ccncc12 [B3]	–	–	–	–	–	little or no damage
O=c1[nH]c2ncccc2c(O)c1-c1c(Cl)cccc1Cl [D2]	–	–	–	–	–	little or no damage
CC(C)(C)C(=O)Oc1c(-c2c(F)ccc(F)c2Cl)c(=O)n(CC(F)F)c2ncccc12 [D10, 2,2-dimethyl-propionic acid 3-(2-chloro-3,6-difluoro-phenyl)-1-(2,2-difluoro-ethyl)-2-oxo-1,2-dihydro-[1,8]naphthyridin-4-yl ester]	0	0	7	6	7	–
CCOC(=O)Oc1c(-c2c(C)cc(C)cc2C)c(=O)[nH]c2nncnc12 [E9]	9	10	0	1	0	–
CC(C)C(=O)Oc1c(-c2c(F)ccc(Br)c2Cl)c(=O)n(CC(F)F)c2ncccc12 [D23, isobutyric acid 3-(3-bromo-2-chloro-6-fluoro-phenyl)-1-(2,2-difluoro-ethyl)-2-oxo-1,2-dihydro-[1,8]naphthyridin-4-yl ester]	0	1	4	4	9	–
O=c1[nH]c2nc(Cl)ccc2c(O)c1-c1c(F)ccc(F)c1Cl [D14]	0	4	4	0	0	–
Cc1cc(C)c(-c2c(O)c3ncnnc3[nH]c2=O)c(C)c1 [E12]	10	10	5	3	1	–
O=c1[nH]c2ncccc2c(O)c1-c1c(F)ccc(Br)c1Cl [D33]	0	0	1	7	3	–
